The values below come from patent US9284283B2, “Macrocyclic compounds for modulating IL-17” (ENSEMBLE THERAPEUTICS CORPORATION, priority 2012, dated 2016).

Test [1] addresses T1, IL17A (Homo sapiens, UniProt Q16552).
T1 sequence (Q16552 24-155): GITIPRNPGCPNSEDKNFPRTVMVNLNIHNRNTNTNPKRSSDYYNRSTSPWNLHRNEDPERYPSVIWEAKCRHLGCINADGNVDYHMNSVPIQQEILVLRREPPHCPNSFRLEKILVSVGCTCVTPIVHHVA
The test can be described thus: Surface Plasmon Resonance (SPR) analysis of compound interactions with IL17A. Conditions: SPR binding to IL17A. The method in brief:
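His-tagged IL17A captured on a Ni-NTA chip; five 2- or 3-fold compound dilutions from 50 μM injected for 180 s, 120 s dissociation, in HEPES-saline buffer with 0.5% DMSO. Baseline-subtracted sensorgrams fitted 1:1 for ka, kd and KD; Kd also derived from binding extent per concentration.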

The target of test [2] is T2, recombinant human IL17a (binding to its receptor IL17R) (Homo sapiens, UniProt Q16552).
T2 construct: purchased R&D Systems 317-ILB (IL17a); 177-IR (IL17R/Fc)
T2 sequence (Q16552 20-155 limits assumed): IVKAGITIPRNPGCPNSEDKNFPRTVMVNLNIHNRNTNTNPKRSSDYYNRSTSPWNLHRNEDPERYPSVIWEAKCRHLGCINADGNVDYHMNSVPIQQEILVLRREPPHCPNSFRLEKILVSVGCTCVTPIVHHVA
In words: IL-17 competition ELISA I (IL17a coated, IL17R/Fc binding). The method in brief:
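Plates coated with 20 nM recombinant human IL17a received compound dilutions and 12 nM IL17R/Fc (final) for 30 min at room temperature. Bound receptor was detected with HRP anti-human Fc and TMB, read at 450 nm. IC50 came from a 4-parameter logistic fit between no-competitor and blank controls.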
For orientation: ELISA stands for enzyme-linked immunosorbent assay.

Usually Kd stands for the concentration at which binding is half-saturated. The term IC50 denotes the concentration that gives 50% inhibition. As for `O=C1CNC(=O)[C@@H](Cc2ccc(NC(=O)[C@H](Cc3ccccc3Cl)NC(=O)c3cccnc3)cc2)NC(=O)CC2(CCCC2)CC(=O)NCCCCCN1` [Compound 194], the Kd in test [1] was less than 100 nM. For the same compound, the IC50 in test [2] is less than 100 nM.

Turning to `O=C1CNC(=O)[C@@H](Cc2ccc(NC(=O)[C@H](Cc3ccccc3Cl)NC(=O)Cc3ccccn3)cc2)NC(=O)CC2(CCCC2)CC(=O)NCCCCCN1` [Compound 226], the dissociation constant (Kd) in test [1] was less than 100 nM. Further, the IC50 in test [2] is less than 100 nM.

Take `COC(=O)[C@@H]1CCCCNC(=O)CNC(=O)[C@@H](Cc2ccc(NC(=O)[C@H](Cc3ccccc3Cl)NC(=O)c3ccccc3)cc2)NC(=O)CC2(CCCC2)CC(=O)N1` [Compound 144]: in test [1], the Kd was less than 100 nM. For the same compound, the half-maximal inhibitory concentration (IC50) in test [2] was less than 100 nM.

`O=C1CNC(=O)[C@@H](Cc2ccc(NC(=O)[C@H](Cc3ccc(Cl)cc3Cl)NC(=O)Cc3ccccc3)cc2)NC(=O)CC2(CCCC2)CC(=O)NCCCCCN1` [Compound 185]: the dissociation constant (Kd) in test [1] was less than 100 nM. For the same compound, in test [2], the IC50 is less than 100 nM.

As for `O=C1CNC(=O)[C@@H](Cc2ccc(NC(=O)[C@H](Cc3ccccc3Cl)NC(=O)Cc3ccccc3)cc2)NC(=O)CC2(CCCC2)CC(=O)NCCCCCN1` [Compound 159], the equilibrium dissociation constant (Kd) in test [1] is less than 100 nM. Besides, the half-maximal inhibitory concentration (IC50) in test [2] was less than 100 nM.

On to `O=C1CNC(=O)[C@@H](Cc2ccc(NC(=O)[C@H](Cc3ccc(Cl)cc3Cl)NC(=O)Cc3ccc(O)cc3)cc2)NC(=O)CC2(CCCC2)CC(=O)NCCCCCN1` [Compound 191], for which the Kd in test [1] was less than 100 nM. The IC50 in test [2] was less than 100 nM.

The compound `COC(=O)[C@@H]1CCCCNC(=O)CCCNC(=O)[C@@H](Cc2ccc(NC(=O)[C@H](Cc3ccccc3F)NC(=O)Cc3ccccc3)cc2)NC(=O)CC2(CCCC2)CC(=O)N1` [Compound 106] came in with a Kd in test [1] of 100 to 1000 nM. The IC50 in test [2] was 100 to 1000 nM.

Consider `O=C1CNC(=O)[C@@H](Cc2ccc(NC(=O)[C@@H](NC(=O)Cc3ccccc3)C3CCCCC3)cc2)NC(=O)CC2(CCCC2)CC(=O)NCCCCCN1` [Compound 186], for which, in test [1], the Kd is less than 100 nM. The IC50 in test [2] is less than 100 nM.

`COC(=O)[C@@H]1CCCCNC(=O)CNC(=O)[C@@H](Cc2ccc(NC(=O)[C@H](Cc3ccccc3Cl)NC(=O)Cc3ccccc3)cc2)NC(=O)CC2(CCCC2)CC(=O)N1` [Compound 143]: in test [1], the dissociation constant (Kd) is less than 100 nM. Besides, the IC50 in test [2] is less than 100 nM.
